This note sets out measurements from patent US20100074955A1, “Combination of NMDA-Receptor Ligand and a Compound With 5-HT6 Receptor Affinity” (LABORATORIOS DEL DR. ESTEVE, S.A., priority 2006, published 2010).

The subject of the assay is adult male Lister Hooded rats. Nature of the assay: Test of novel object discrimination in rats. Type of assay: in vivo, rat. The settings on record: memantine alone 5, 10, 15 and 20 mg/kg i.p. vs vehicle, 20 minutes before trial, 4 hour inter-trial interval, FIG. 1. The protocol: Adult male Lister Hooded rats (Charles River, UK) weighing 200-350 g at the start of the experiment were housed in groups of four on a 12:12 h light:dark cycle (lights on at 07:00 h). Food and water were available ad libitum throughout the study, and the room temperature (21±2° C.) and relative humidity (45-65%) were kept constant. In one experiment, rats received i.p. injections (2 ml/kg, −20 minutes prior to the familiarisation trial) of memantine (n=12) at 5, 10, 15 and 20 mg/kg compared with vehicle (0.5% methylcellulose in saline, 2 ml/kg), such that all rats received all doses of the compound in a random order with each behavioural test occurring at seven day intervals.
In the combination study, a group of rats (n=12 each) received injection of a sub-effective dose of compound 841 (1 mg/kg i.p.) or vehicle (0.5% methylcellulose in saline, 2 ml/kg), either alone or combined with memantine (5 mg/kg). Each drug combination was administered to all rats in the group over a period of 4 weeks in a random order using a seven day behavioural test interval. […]

Regarding `CC12CC3CC(C)(C1)CC(N)(C3)C2` [memantine, 1-amino-3,5-dimethyladamantane], the “discrimination of a novel object against a familiar object (time spent exploring each object)” value is listed as “high amounts of said compound are necessary for rats to discriminate a novel object against a familiar object”.
